This is an account of results in ChEMBL document CHEMBL1287746, “The discovery of tricyclic pyridone JAK2 inhibitors. Part 1: hit to lead” (Bioorg Med Chem Lett, 2010).

pIC50: −log10 of the molar value. Converted amounts (≈) assume the structure as drawn.

Series [1] concerns the target T1, Tyrosine-protein kinase JAK2 (Homo sapiens, UniProt O60674). In words: Inhibition of JAK2 in cell-free system.
Series [2] addresses T1, Tyrosine-protein kinase JAK2. Put plainly: Inhibition of JAK2 expressed in human Du-145 cells. Type of series: cell-based.
Series [3] is described as follows: Clearance in Sprague-Dawley rat at 1 mg/kg, iv. Type of series: ADME, organism-based. Further details: dose 1 mg/kg, route intravenous. Conditions: in vivo.
Series [4] is described as follows: Volume of distribution in Sprague-Dawley rat at 1 mg/kg, iv. It counts as ADME, organism-based. Also noted: dose 1 mg/kg, route intravenous. The settings on record: in vivo.
Series [5] can be described thus: Aqueous solubility of the compound at pH 7. Type of series: physicochemical.
Series [6] concerns Mus musculus. Put plainly: Inhibition of JAK2 in erythropoietin-treated […] mouse assessed as reduction in pSTAT5 level in whole blood at 30 mg/kg, po measured after 1 and 3 hrs. It counts as functional, organism-based. Also noted: dose 30 mg/kg, route oral.
Series [7] deals with Mus musculus. In words: Inhibition of JAK2 in erythropoietin-treated […] mouse assessed as reduction in pSTAT5 level in whole blood at 90 mg/kg, po measured after 1 and 3 hrs. Type of series: functional, organism-based. Further details: dose 90 mg/kg, route oral.
A short description of series [8]: Lipophilicity log D of the compound at pH 7.4 by HPLC. Conditions: buffer. Type of series: physicochemical.

T1 sequence (O60674 whole entry): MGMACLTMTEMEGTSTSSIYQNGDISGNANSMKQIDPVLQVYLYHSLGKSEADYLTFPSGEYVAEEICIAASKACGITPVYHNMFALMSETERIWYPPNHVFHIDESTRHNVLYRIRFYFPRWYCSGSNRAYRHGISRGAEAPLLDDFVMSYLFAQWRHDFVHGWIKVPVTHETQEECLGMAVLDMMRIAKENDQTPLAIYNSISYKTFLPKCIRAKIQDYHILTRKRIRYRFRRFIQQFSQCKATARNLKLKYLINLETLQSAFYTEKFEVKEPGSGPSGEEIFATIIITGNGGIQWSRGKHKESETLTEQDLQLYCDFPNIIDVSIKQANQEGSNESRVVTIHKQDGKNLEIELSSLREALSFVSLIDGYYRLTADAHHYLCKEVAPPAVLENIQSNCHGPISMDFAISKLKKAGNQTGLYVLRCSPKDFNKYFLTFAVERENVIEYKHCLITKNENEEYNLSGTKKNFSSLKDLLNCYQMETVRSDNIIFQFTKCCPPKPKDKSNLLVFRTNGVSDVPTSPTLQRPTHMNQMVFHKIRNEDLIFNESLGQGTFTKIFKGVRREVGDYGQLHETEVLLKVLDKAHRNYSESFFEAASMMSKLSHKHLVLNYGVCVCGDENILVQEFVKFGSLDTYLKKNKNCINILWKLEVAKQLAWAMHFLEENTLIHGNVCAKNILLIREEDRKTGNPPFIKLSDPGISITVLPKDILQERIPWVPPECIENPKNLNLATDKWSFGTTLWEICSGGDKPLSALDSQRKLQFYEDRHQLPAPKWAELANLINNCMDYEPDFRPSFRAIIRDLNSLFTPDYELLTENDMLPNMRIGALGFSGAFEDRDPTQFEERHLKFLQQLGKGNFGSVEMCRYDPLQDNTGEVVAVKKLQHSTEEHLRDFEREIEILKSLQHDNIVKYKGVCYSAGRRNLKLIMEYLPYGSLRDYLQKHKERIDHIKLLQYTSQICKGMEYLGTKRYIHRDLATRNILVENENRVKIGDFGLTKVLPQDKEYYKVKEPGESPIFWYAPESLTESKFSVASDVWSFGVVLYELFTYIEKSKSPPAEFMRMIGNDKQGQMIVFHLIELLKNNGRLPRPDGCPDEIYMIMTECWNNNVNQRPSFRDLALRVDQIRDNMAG

In general, pIC50 refers to the negative decadic logarithm of the IC50, by convention in mol/L. In series [1], `O=c1[nH]ccc2nc(NC3CCC3)c3ccc(F)cc3c12` showed a pIC50 of 7.12. Still for that read-out and setting: the figure for `O=c1[nH]ccc2nc(Nc3c(F)cc(F)cc3Cl)c3ccc(F)cc3c12` is 8.40; for `CC(Nc1nc2cc[nH]c(=O)c2cc1-c1nc(-c2ccccc2)no1)C(C)(C)C` (stereo unspecified) it is 4.94; for `O=c1[nH]ccc2nc(NCc3ccccn3)c3ccc(F)cc3c12` it is 5.95.

For `CN1CCC(N(c2nc3cc[nH]c(=O)c3c3cc(F)ccc23)C2CC2)CC1`, the pIC50 in series [1] was 6.27. On the same count and under the same terms, for `O=c1[nH]ccc2nc(NCc3c(Cl)cccc3Cl)c3ccc(F)cc3c12` the value was 7.28; for `CC(Nc1nc2cc[nH]c(=O)c2c2cc(F)ccc12)C(C)(C)C` (stereo unspecified), 7.59; for `CC(C)(CO)CNc1nc2cc[nH]c(=O)c2c2cc(F)ccc12`, 6.56. Same read-out and setting: for `O=c1[nH]ccc2nc(N3CCC(F)(F)C3)c(-c3ccc(F)cc3)cc12` the value was 5.40; for `O=c1[nH]ccc2nc(Nc3c(Cl)cccc3Cl)c3ccc(F)cc3c12`, 7.85; for `CC(C)Nc1nc2cc[nH]c(=O)c2c2cc(F)ccc12`, 6.86. As a reminder, the clearance is the rate of elimination divided by the concentration. Higher therefore signals a high capacity for elimination. What is called Vd is a proportionality between amount in the body and measured concentration, not a real space. A lower Vd goes with little distribution into tissue. The solubility is how much of the substance goes into solution per volume. The logD is the decadic logarithm of the distribution of all forms, ionised or not, between an organic phase and buffer at a given pH. As to `CC(C)[C@@H](Nc1nc2cc[nH]c(=O)c2c2cnccc12)C(F)(F)F`, the pIC50 was 9.00 in series [1], 7.40 in series [2], 5.57 in series [6] and 5.57 in series [7]. The clearance in series [3] is 68 mL/min/kg. In series [4], this compound yielded a Vd of 8 L/kg. In series [5], this compound registered a solubility of 120 µM (≈ 40.4 µg/mL). This compound registered a logD in series [8] of 2.33.

For `CC(Nc1nc2cc[nH]c(=O)c2cc1-c1ccc(F)cc1)c1cc(F)c(Cl)cc1Cl` (stereo unspecified), in series [1], the pIC50 was 4.93. The compound `O=c1[nH]ccc2nc(NC3CC(F)(F)C3)c3ccc(F)cc3c12` gave a negative logarithm of the IC50 (pIC50) in series [1] of 6.12. As for `CC(C)[C@H](Nc1nc2cc[nH]c(=O)c2c2cc(F)ccc12)C(F)(F)F`, the pIC50 in series [1] was 7.26. On the same count and under the same terms, for `O=c1[nH]ccc2nc(NCc3ccncc3)c(-c3ccccc3)cc12` the value was 5.85; for `O=c1[nH]ccc2nc(NCC3CCS(=O)(=O)C3)c3ccc(F)cc3c12` (stereo unspecified), 6.29. On the same count and under the same terms, for `CC(C)[C@H](C)Nc1nc2cc[nH]c(=O)c2c2cc(F)ccc12` the value was 7.57; for `O=c1[nH]ccc2nc(Nc3cccc(F)c3)c3ccc(F)cc3c12`, 5.39. On the same count and under the same terms, the figure for `CC(C)(C)CNc1nc2cc[nH]c(=O)c2cc1-c1ccc(F)cc1` is 4.54. Take `CC(Nc1nc2cc[nH]c(=O)c2cc1-c1ccccn1)C(C)(C)C` (stereo unspecified): in series [1], the pIC50 was 6.20.

Consider `CC(C)[C@@H](Nc1nc2cc[nH]c(=O)c2c2cc(F)ccc12)C(F)(F)F`, for which the pIC50 in series [1] is 9.00; in series [2], 7.30. In series [3], this compound showed a clearance of 21 mL/min/kg. In series [4], this compound registered a Vd of 6 L/kg. Also, the concentration in solution in series [5] (solubility) came to 3 µM (≈ 1.06 µg/mL). In series [8], this compound yielded a logD of 3.34.

As for `CC(C)(CN)CNc1nc2cc[nH]c(=O)c2c2cc(F)ccc12`, the pIC50 in series [1] was 5.50. Still for that read-out and setting: the figure for `CC(Nc1nc2cc[nH]c(=O)c2cc1C(=O)NCCN(C)C)C(C)(C)C` (stereo unspecified) is 5.08.
